Data reported in ChEMBL document CHEMBL5126543, “Tandem construction of biological relevant aliphatic 5-membered N-heterocycles” (Eur J Med Chem, 2022).
≈ marks a conversion by molar mass, not a printed value. Where a SMILES comes first, the peptide text is derived from it. [ ]: non-standard residue; d: D form. Pro(trans-4-cHex) = O=C(O)[C@@H]1C[C@@H](C2CCCCC2)CN1; Pro(trans-4-Ph) = O=C(O)[C@@H]1C[C@@H](c2ccccc2)CN1; Pro(cis-4-OPh) = O=C(O)[C@@H]1C[C@H](Oc2ccccc2)CN1; Pro(cis-4-CF3) = O=C(O)[C@@H]1C[C@H](C(F)(F)F)CN1; Pro(4R-Bn) = O=C(O)[C@@H]1C[C@@H](Cc2ccccc2)CN1; Pro(cis-4-F) = O=C(O)[C@@H]1C[C@H](F)CN1; Pro(4S-NH2) = N[C@@H]1CN[C@H](C(=O)O)C1

Assays:
C32 = test: Antiproliferative activity against human C32 cells measured after 72 hrs by WST-1 assay; type: functional, cell-based; conditions: C32, 72 h
MDA-MB-231 = test: Antiproliferative activity against human MDA-MB-231 cells measured after 72 hrs by WST-1 assay; type: functional, cell-based; conditions: MDA-MB-231, 72 h
SNB-19 = test: Antiproliferative activity against human SNB-19 cells measured after 72 hrs by WST-1 assay; type: functional, cell-based; conditions: SNB-19, 72 h
[1] = Cytotoxicity against HFF-1 cells measured after 72 hrs by WST-1 assay; type: toxicity, cell-based; conditions: human
Escherichia coli = test: Antimicrobial activity against Escherichia coli ATCC 25922 incubated for 18 to 20 hrs; type: functional; conditions: time 18-20 hrs
Candida albicans = test: Antimicrobial activity against Candida albicans ATCC 24433 incubated for 18 to 20 hrs; type: functional; conditions: time 18-20 hrs
Pseudomonas aeruginosa = test: Antimicrobial activity against Pseudomonas aeruginosa ATCC 27853 incubated for 18 to 20 hrs; type: functional; conditions: time 18-20 hrs
[2] = system: Staphylococcus epidermidis; test: Antimicrobial activity against Staphylococcus epidermidis ATCC 12228 incubated for 18 to 20 hrs; type: functional; conditions: time 18-20 hrs
Priestia megaterium = test: Antimicrobial activity against Bacillus megaterium Bm11 incubated for 18 to 20 hrs; type: functional; conditions: time 18-20 hrs
SK-BR-3 = test: Cytotoxicity against human SK-BR-3 cells treated for 72 hrs by MTT assay; type: functional, cell-based; conditions: SK-BR-3, 72 h
MCF7 = test: Cytotoxicity against human MCF7 cells treated for 72 hrs by MTT assay; type: functional, cell-based; conditions: MCF7, 72 h
PC-3 = test: Cytotoxicity against human PC-3 cells treated for 72 hrs by MTT assay; type: functional, cell-based; conditions: PC-3, 72 h
HeLa = test: Cytotoxicity against human HeLa cells treated for 72 hrs by MTT assay; type: functional, cell-based

| SMILES | IC50 (C32) [µM] | IC50 (MDA-MB-231) [µM] | IC50 (SNB-19) [µM] | IC50 at 72 h [1] [µM] | MIC (Escherichia coli) [µM] | MIC (Candida albicans) [µM] | MIC (Pseudomonas aeruginosa) [µM] | MIC [2] [µM] | MIC (Priestia megaterium) [µM] | other results |
| --- | --- | --- | --- | --- | --- | --- | --- | --- | --- | --- |
| CCN(CC)CC#CCSc1nc(SCC#CCN(CC)CC)c2c(ncn2C)n1 | 23.9 | 38.5 | 48.9 | 5.95 | – | – | – | – | – | – |
| Cn1c(SCC#CCN2CCCCC2)nc2nc(Cl)nc(SCC#CCN3CCCCC3)c21 | 19.1 | 38.1 | 11.6 | 5.5 | – | – | – | – | – | – |
| CCN(CC)CC#CCSc1nc2c(c(=O)[nH]c(=O)n2C)n1C | 26.4 | 68.1 | 1.48 | 3.68 | – | – | – | – | – | – |
| Cn1c(SCC#CCN2CCOCC2)nc2nc(Cl)nc(SCC#CCN3CCOCC3)c21 | 4.08 | 74 | 26.1 | 36.4 | – | – | – | – | – | – |
| Cn1c(SCC#CCN2CCOCC2)nc2c1c(=O)[nH]c(=O)n2C | 22.7 | 6.54 | 1.39 | 5.87 | – | – | – | – | – | – |
| Cn1cnc2nc(SCC#CCN3CCCCC3)nc(SCC#CCN3CCCCC3)c21 | 6.39 | 7.35 | 4.64 | 3.98 | – | – | – | – | – | – |
| CCN(CC)CC#CCSc1nc(Cl)nc2nc(SCC#CCN(CC)CC)n(C)c12 | 5.33 | 10 | 2.91 | 1 | – | – | – | – | – | – |
| Cn1cnc2nc(SCC#CCN3CCCC3)nc(SCC#CCN3CCCC3)c21 | 6.81 | 19.9 | 19.4 | 10 | – | – | – | – | – | – |
| CC[C@H](C)[C@H](NC(=O)[C@H](CCCNC(=N)N)NC(=O)CNC(=O)[C@H](CC(C)C)NC(=O)[C@H](Cc1ccccc1)NC(=O)[C@H](CCCCN)NC(=O)[C@H](CO)NC(=O)[C@H](Cc1ccccc1)NC(=O)[C@H](Cc1c[nH]c2ccccc12)NC(=O)[C@H](CCC(N)=O)NC(=O)[C@@H]1C[C@@H](Cc2ccccc2)CN1C(=O)[C@@H](NC(=O)[C@@H](N)Cc1ccccc1)C(C)C)C(=O)N[C@@H](CC(C)C)C(N)=O (H-FV[Pro(4R-Bn)]QWFSKFLGRIL-NH2) | – | – | – | – | 25 (≈ 45.7 µg/mL) | 25 (≈ 45.7 µg/mL) | 50 (≈ 91.4 µg/mL) | 3.12 (≈ 5.7 µg/mL) | 3.12 (≈ 5.7 µg/mL) | – |
| CC[C@H](C)[C@H](NC(=O)[C@H](CCCNC(=N)N)NC(=O)CNC(=O)[C@H](CC(C)C)NC(=O)[C@H](Cc1ccccc1)NC(=O)[C@H](CCCCN)NC(=O)[C@H](CO)NC(=O)[C@H](Cc1ccccc1)NC(=O)[C@H](Cc1c[nH]c2ccccc12)NC(=O)[C@H](CCC(N)=O)NC(=O)[C@@H]1C[C@H](N)CN1C(=O)[C@@H](NC(=O)[C@@H](N)Cc1ccccc1)C(C)C)C(=O)N[C@@H](CC(C)C)C(N)=O (H-FV[Pro(4S-NH2)]QWFSKFLGRIL-NH2) | – | – | – | – | 3.12 (≈ 5.47 µg/mL) | 12.5 (≈ 21.9 µg/mL) | 3.12 (≈ 5.47 µg/mL) | 3.12 (≈ 5.47 µg/mL) | 3.12 (≈ 5.47 µg/mL) | – |
| CC[C@H](C)[C@H](NC(=O)[C@H](CCCNC(=N)N)NC(=O)CNC(=O)[C@H](CC(C)C)NC(=O)[C@H](Cc1ccccc1)NC(=O)[C@H](CCCCN)NC(=O)[C@H](CO)NC(=O)[C@H](Cc1ccccc1)NC(=O)[C@H](Cc1c[nH]c2ccccc12)NC(=O)[C@H](CCC(N)=O)NC(=O)[C@@H]1C[C@H](C(F)(F)F)CN1C(=O)[C@@H](NC(=O)[C@@H](N)Cc1ccccc1)C(C)C)C(=O)N[C@@H](CC(C)C)C(N)=O (H-FV[Pro(cis-4-CF3)]QWFSKFLGRIL-NH2) | – | – | – | – | 12.5 (≈ 22.6 µg/mL) | 12.5 (≈ 22.6 µg/mL) | 25 (≈ 45.1 µg/mL) | 3.12 (≈ 5.63 µg/mL) | 3.12 (≈ 5.63 µg/mL) | – |
| CC[C@H](C)[C@H](NC(=O)[C@H](CCCNC(=N)N)NC(=O)CNC(=O)[C@H](CC(C)C)NC(=O)[C@H](Cc1ccccc1)NC(=O)[C@H](CCCCN)NC(=O)[C@H](CO)NC(=O)[C@H](Cc1ccccc1)NC(=O)[C@H](Cc1c[nH]c2ccccc12)NC(=O)[C@H](CCC(N)=O)NC(=O)[C@@H]1C[C@H](F)CN1C(=O)[C@@H](NC(=O)[C@@H](N)Cc1ccccc1)C(C)C)C(=O)N[C@@H](CC(C)C)C(N)=O (H-FV[Pro(cis-4-F)]QWFSKFLGRIL-NH2) | – | – | – | – | 12.5 (≈ 21.9 µg/mL) | 12.5 (≈ 21.9 µg/mL) | 12.5 (≈ 21.9 µg/mL) | 3.12 (≈ 5.48 µg/mL) | 3.12 (≈ 5.48 µg/mL) | – |
| CC[C@H](C)[C@H](NC(=O)[C@H](CCCNC(=N)N)NC(=O)CNC(=O)[C@H](CC(C)C)NC(=O)[C@H](Cc1ccccc1)NC(=O)[C@H](CCCCN)NC(=O)[C@H](CO)NC(=O)[C@H](Cc1ccccc1)NC(=O)[C@H](Cc1c[nH]c2ccccc12)NC(=O)[C@H](CCC(N)=O)NC(=O)[C@@H]1C[C@H](Oc2ccccc2)CN1C(=O)[C@@H](NC(=O)[C@@H](N)Cc1ccccc1)C(C)C)C(=O)N[C@@H](CC(C)C)C(N)=O (H-FV[Pro(cis-4-OPh)]QWFSKFLGRIL-NH2) | – | – | – | – | 25 (≈ 45.7 µg/mL) | 12.5 (≈ 22.9 µg/mL) | 50 (≈ 91.5 µg/mL) | 3.12 (≈ 5.71 µg/mL) | 3.12 (≈ 5.71 µg/mL) | – |
| CC[C@H](C)[C@H](NC(=O)[C@H](CCCNC(=N)N)NC(=O)CNC(=O)[C@H](CC(C)C)NC(=O)[C@H](Cc1ccccc1)NC(=O)[C@H](CCCCN)NC(=O)[C@H](CO)NC(=O)[C@H](Cc1ccccc1)NC(=O)[C@H](Cc1c[nH]c2ccccc12)NC(=O)[C@H](CCC(N)=O)NC(=O)[C@@H]1C[C@@H](c2ccccc2)CN1C(=O)[C@@H](NC(=O)[C@@H](N)Cc1ccccc1)C(C)C)C(=O)N[C@@H](CC(C)C)C(N)=O (H-FV[Pro(trans-4-Ph)]QWFSKFLGRIL-NH2) | – | – | – | – | 12.5 (≈ 22.7 µg/mL) | 12.5 (≈ 22.7 µg/mL) | 50 (≈ 90.7 µg/mL) | 3.12 (≈ 5.66 µg/mL) | 3.12 (≈ 5.66 µg/mL) | – |
| CC[C@H](C)[C@H](NC(=O)[C@H](CCCNC(=N)N)NC(=O)CNC(=O)[C@H](CC(C)C)NC(=O)[C@H](Cc1ccccc1)NC(=O)[C@H](CCCCN)NC(=O)[C@H](CO)NC(=O)[C@H](Cc1ccccc1)NC(=O)[C@H](Cc1c[nH]c2ccccc12)NC(=O)[C@H](CCC(N)=O)NC(=O)[C@@H]1C[C@@H](C2CCCCC2)CN1C(=O)[C@@H](NC(=O)[C@@H](N)Cc1ccccc1)C(C)C)C(=O)N[C@@H](CC(C)C)C(N)=O (H-FV[Pro(trans-4-cHex)]QWFSKFLGRIL-NH2) | – | – | – | – | 50 (≈ 91 µg/mL) | 25 (≈ 45.5 µg/mL) | 100 (≈ 182 µg/mL) | 3.12 (≈ 5.68 µg/mL) | 3.12 (≈ 5.68 µg/mL) | – |
| COc1cc2c(c(OC)c1OC)-c1ccc(OC)c(=O)cc1[C@@H](NC(C)=O)CC2 [COLCHICINE] | – | – | – | – | – | – | – | – | – | IC50 (SK-BR-3): 0.04 µM; IC50 (MCF7): 25 µM; IC50 (PC-3): 0.03 µM |
| COc1cccc2c1C(=O)c1c(O)c3c(c(O)c1C2=O)C[C@@](O)(C(=O)CO)C[C@@H]3O[C@H]1C[C@H](N)[C@H](O)[C@H](C)O1 [DOXORUBICIN] | – | – | – | – | – | – | – | – | – | IC50 (HeLa): 2.45 µM; IC50 (SK-BR-3): 2.36 µM; IC50 (MCF7): 3.62 µM; IC50 (PC-3): 1.66 µM |
